EP4755881A1 (Wuhan Createrna Science and Technology Co., Ltd., priority 2023, dated 2025)
pIC50: −log10 of the molar value. Where two headings read alike, the source gives them in different places.

Tests used:
[1] = target: hLPAR1 (human lysophosphatidic acid receptor 1, Accession No.: NM_001401.4) (Homo sapiens, UniProt Q92633); assay: cell-based; conditions: FLIPR method, CHO-K1 cells overexpressing hLPAR1
In short: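 Antagonist mode in CHO-K1 cells stably expressing hLPAR1, Fluo-4 loaded; compound preincubated 30 min at room temperature before 1 µM oleoyl-LPA (final) challenge.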

LPAR1 receptor = target: T1, LPAR1 receptor (Homo sapiens, UniProt Q92633); assay: LPAR1 in vitro biological activity evaluation 2: HTRF cAMP kit (LANCE Ultra cAMP Kit) assay in CHO stable transfected cell line expressing the LPAR1 receptor; assay type: cell-based; conditions: Table 2, read-out: LPAR1 inhibitory activity IC50
T1 construct: expressed in transfected cells
Experimental: The inhibitory effects of the compounds of the present disclosure on the LPAR1 receptor were determined using a Chinese hamster ovary (CHO) stable transfected cell line expressing the LPAR1 receptor, through the HTRF cAMP kit (LANCE® Ultra cAMP Kit).
The CHO cell line expressing the LPAR1 receptor was cultured in F-12 medium (Gibco, 117650054) containing 10% fetal bovine serum (FBS, Avantor, 76294-180) and 0.2 mg/mL hygromycin B (Solarbio, H8080-1g) at 37°C with 5% CO2. Cell passage, recovery, and cryopreservation were performed according to conventional methods. The stable transfected cell line was cultured to 80% confluence, digested with trypsin to collect cells, counted, and then seeded at 5 µL/well in a 384-well plate (500 cells/5 µL). The 1× Stimulation Buffer was prepared according to the instructions of the kit (LANCE® Ultra cAMP Kit). 1 µL of the test compound solution (diluted to 10× with 1× Stimulation Buffer) was added to the corresponding experimental wells, followed by centrifugation and incubation at 37°C for 10 minutes. […] 5 µL/well of Eu-cAMP (diluted with Detection buffer) was added to the corresponding experimental wells. 5 µL/well of ULight™-anti-cAMP antibody (diluted with Detection buffer) was added to the corresponding experimental wells, followed by centrifugation and incubation at room temperature for 1 hour. After the incubation was completed, the readings at 665 nm and 620 nm under 330 nm excitation were detected using the HTS high-throughput drug screening multifunctional microplate reader (BMG, PHERAstar FSX). The IC50 values were calculated by fitting nonlinear regression (dose response - variable slope) using GraphPad Prism software.

[2] = Pharmacokinetic study in rats (oral gavage and tail vein injection, plasma LC-MS/MS); assay type: in vivo; conditions: rat; for Cmax: read-out: Cmax
In short: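 Plasma from SD rats is taken at 0.167–24 h after oral gavage or at 0.033–24 h after intravenous tail-vein dosing and assayed by LC-MS/MS. Oral animals are fasted overnight and dosed in DMSO/ethanol/PEG400/saline; IV animals receive ethanol/water/PEG400. PK parameters come from a non-compartmental model.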

[3] = Table 1, read-out: LPAR1 inhibitory activity IC50

hLPAR1 (human lysophosphatidic acid receptor 1, Accession No.: NM_001401.4), sequence (Q92633 whole entry): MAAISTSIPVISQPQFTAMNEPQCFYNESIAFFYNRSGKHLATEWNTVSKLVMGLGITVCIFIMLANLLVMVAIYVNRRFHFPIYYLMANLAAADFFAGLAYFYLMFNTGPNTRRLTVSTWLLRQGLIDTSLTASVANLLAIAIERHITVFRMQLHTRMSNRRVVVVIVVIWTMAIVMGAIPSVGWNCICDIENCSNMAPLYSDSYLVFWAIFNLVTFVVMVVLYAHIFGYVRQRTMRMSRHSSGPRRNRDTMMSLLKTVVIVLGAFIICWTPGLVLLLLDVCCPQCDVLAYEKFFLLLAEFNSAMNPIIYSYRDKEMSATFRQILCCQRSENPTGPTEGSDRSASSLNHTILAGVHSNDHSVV
T1 sequence (Q92633 whole entry): as above

CCC[C@@H](C)OC(=O)Nc1c(-c2ccc(C#C[C@@H]3C[C@H]3C(=O)O)c(C)n2)nnn1C (mixture of isomers) [224-B, trans-2-((2-methyl-6-(1-methyl-5-(((((R)-pentan-2-yl)oxy)carbonyl)amino)-1H-1,2,3-triazol-4-yl)pyridin-3-yl)ethynyl)cyclopropane-1-carboxylic acid]
pIC50 [1, 3]: 7.15
pIC50 (LPAR1 receptor): 6.90

CCC[C@@H](C)OC(=O)Nc1c(-c2ccc(C#CC3(CC(=O)O)CC(OC)C3)c(C)n2)nnn1C (stereo partly drawn) [compound 278]
pIC50 [1, 3]: 7.42
half-life ([2]; male, SD, iv, 1 mg/kg): 5.24 h
half-life ([2]; male, SD, po, 1 mg/kg): 4.5 h
AUC(0-t) ([2]; male, SD rats, Iv, 1 mg/kg): 5000 to 10000 ng·h/mL
Cmax ([2]; male, SD rats, Iv, 1 mg/kg): 5000 to 8000 ng/mL
AUC(0-t) ([2]; male, SD rats, Po, 1 mg/kg): 5000 to 10000 ng·h/mL
Cmax ([2]; male, SD rats, Po, 1 mg/kg): 200 to 800 ng/mL
pIC50 (LPAR1 receptor): 7.46

CCCC[C@@H](C)OC(=O)Nc1c(-c2ccc(C#CC3(CC(=O)O)CC3)c(C)n2)nnn1C [compound 313]
pIC50 ([1]; LPAR1 inhibitory activity IC50, Table 1): 7.79
AUC(0-t) ([2]; SD rats, Iv, 1 mg/kg): 3000 to 5000 ng·h/mL
half-life ([2]; SD rats, Iv, 1 mg/kg): 5.12 h
Cmax ([2]; SD rats, Iv, 1 mg/kg): 800 to 5000 ng/mL
AUC(0-t) ([2]; SD rats, Po, 3 mg/kg): 10000 to 20000 ng·h/mL
half-life ([2]; SD rats, Po, 3 mg/kg): 5.59 h
Cmax ([2]; SD rats, Po, 3 mg/kg): 800 to 5000 ng/mL
pIC50 (LPAR1 receptor): 6.81
